In patent US20040136938A1, “Composition of vitamin c and/or vitamin a” (priority 2000, published 2004):

Columns and labels:
[1] = tested on: fibroblasts of human skin; assay: Cellular proliferation of fibroblasts of human skin ([3H]-thymidine incorporation, 72 h); assay type: cell-based; conditions: for decrease in the cellular proliferation: retinol 20 μg/ml (69.72 μM) alone, vs. reference without retinol
Description: The Mixture of oligofucoses-1 as prepared in example 1 is tested in concentrations of 1 μg/ml and 10μg/ml, both alone and in the simultaneous presence of 375 μg/ml of sodium ascorbate and/or 20 μg/ml of retinol.
The fibroblasts of human skin used in this study come from the removal of skin from a person (28th passing). The cells were cultivated on 12-well plates, in a DMEM culture medium with 10% of fetal calf serum (SVF), 1% of antibiotics and of antifungus (PSF), and 1 μCi/ml of [^3H]-timidine (ICN) for 72 hours in the presence of the products to be tested at final concentrations of 1 μg/ml and 10 μg/ml.
After 72 hours of culture in stove (5% (v/v) CO2, 95% (v/v) air) at 37° C. in the presence of the tested products, the cells were washed four times with PBS, then the cellular carpet was detached for 0.05% of tripsin. Three ml of scintillation liquid were then added per sample, then the radioactivity incorporated in the cells is read in a computer with scintillation.
One incubated the cells with 20 μg/ml of retinol (69.72 μM). […] Two concentrations were tested: 1 μg/ml and 10 μg/ml.
One incubated the cells with 375 μg/ml of Na ascorbate (1.875 mM). […] Two concentrations were tested: 1 μg/ml and 10 μg/ml.
The cells were simultaneously incubated with 375 μg/ml of Na ascorbate and 20 μg/ml of retinol.

[2] = tested on: fibroblasts of mammaplasty; assay: Collagen synthesis by fibroblasts (Sirius red coloration); assay type: cell-based, human
Description: The fibroblasts of mammaplasty of a person, in passage 14, were seeded on 12-well plates at the rate of 0.5.10^5 cells per well. The cells are placed in culture for 48 hours in the presence of a DMEM culture medium at 10% of fetal calf serum (SVF), in stove (5% (v/v) CO2, 95% (v/v) air) at 37° C.
After rinsing with PBS, they are treated and placed again in culture for 48 hours in the presence of products to be tested and of DMEM without SVF.
The method is based on a specific coloration of collagen by the Sirius red. The cells are directly fixed by the Bouin liquid (1 ml/well) for 1 hour, after exhaustive rinsing with PBS. The fixer is then aspirated and the plates are rinsed with running water by immersion for 15 minutes.
The coloration is carried out under stirring for 1 hour (1 ml/well) and the plates are then rinsed with hydrochloric acid 0.01 N. Then the material is dissolved in 200 μl of sodium hydroxide 0.1N before transferring to the microtiter plates (Nunc). The optical density is measured at 550 nm against sodium hydroxide as a blank.
The counting of the cells is carried out in 4 wells of each plate, and one detaches the cells with tripsin at 0.05%.
One studied the effect of fucose and of the Mixture of oligofucoses-1 (at 10 μg/ml each) in the presence or absence of sodium ascorbate at 500 μg/ml. And then in the presence or absence of retinol (10 μg/ml).

cells = conditions: cited from earlier work

O=C1O[C@H]([C@@H](O)CO)C([O-])=C1O.[Na+] [Na ascorbate, sodium ascorbate]
% vs. control (proliferation) ([1]; Na ascorbate 375 μg/ml alone): −64.4%
effect on synthesis of collagen ([2]; sodium ascorbate 500 μg/ml alone, with respect to the effect of 50 μg/ml): activates the synthesis of collagen very little

CC1=C(/C=C/C(C)=C/C=C/C(C)=C/CO)C(C)(C)CCC1 [Retinol, retinol]
decrease in the cellular proliferation [1]: about 45%
decrease in the cellular proliferation ([1]; listed as retinol): 42.5%
% vs. control (proliferation) ([1]; retinol 20 μg/ml alone): −42.5%
effect on synthesis of collagen ([2]; retinol alone (10 μg/ml)): inhibiting effect on the synthesis of collagen

O=C1O[C@H]([C@@H](O)CO)C(O)=C1O [ascorbate]
concentration at which cytotoxic effect can be observed (cells; cell detachment, slowed proliferation, cellular death): about 2.5 mM

O=C1O[C@H]([C@@H](O)CO)C(O)=C1O [ascorbic acid]
concentration from which cytotoxic effect starts (cells): about 0.01 % by weight

C[C@H](O)[C@@H](O)[C@@H](O)[C@H](O)C=O [fucose]
effect on synthesis of collagen in the presence of retinol ([2]; 10 μg/ml with retinol 10 μg/ml, 48 h): this inhibition is greatly abolished
effect on biosynthesis of collagen in the presence of sodium ascorbate ([2]; 10 μg/ml with sodium ascorbate 500 μg/ml, 48 h): stimulation of the biosynthesis of collagen
decrease in the amount of collagen synthesized by the fibroblasts ([2]; fucose alone, 48 h, DMEM without SVF): about 19%
